This is an account of results in ChEMBL document CHEMBL5137134, “Developing the Natural Prenylflavone Artocarpin from Artocarpus hirsutus as a Potential Lead Targeting Pathogenic, Multidrug-Resistant Staphylococcus aureus, Persisters and Biofilms with No Detectable Resistance” (J Nat Prod, 2022).

Values after ≈ are worked out from the molar mass of the structure shown. Active and inactive are the calls of the source. No cut-off for these calls is given here. Peptide text beside a SMILES is read from it.

The test system of assay [1] is Acinetobacter baumannii. As to the kind of experiment: Antibacterial activity against Acinetobacter baumannii BAA 1605 assessed as reduction in bacterial growth incubated for 16 to 18 hrs by broth microdilution method. In kind it is functional. The note with it: time 16-18 hrs. On the technique in general: In broth dilution the organism is exposed to a series of concentrations in liquid medium.

Assay [2] relates to Escherichia coli. Description: Antibacterial activity against Escherichia coli ATCC 25922 assessed as reduction in bacterial growth incubated for 16 to 18 hrs by broth microdilution method. The class given is functional. The note with it: time 16-18 hrs.
The test system of assay [3] is Escherichia coli. Description: Antibacterial activity against Escherichia coli ATCC 25922 assessed as reduction in bacterial growth incubated for 16 to 18 hrs in presence of PMBN by broth microdilution method. In kind it is functional. The note with it: time 16-18 hrs.
Assay [4] deals with Acinetobacter baumannii. As to the kind of experiment: Antibacterial activity against Acinetobacter baumannii BAA 1605 assessed as reduction in bacterial growth incubated for 16 to 18 hrs in presence of PMBN by broth microdilution method. The class given is functional. The conditions noted are these: time 16-18 hrs.
Assay [5] relates to Staphylococcus aureus. Description: Synergistic antibacterial activity against Staphylococcus aureus ATCC 29213 assessed as reduction in bacterial growth incubated for 24 hrs in presence of artocarpin by checkerboard method. In kind it is functional.
The test system of assay [6] is Staphylococcus aureus. Description: microbe, parasite or virus in culture. The note with it: ATCC 29213.
Description: Antibacterial activity against Staphylococcus aureus ATCC 29213 assessed as reduction in bacterial growth incubated for 16 to 18 hrs by broth microdilution method
The test system of assay [7] is Staphylococcus aureus. Description: Antibacterial activity against Staphylococcus aureus ATCC 29213 at 1 time MIC after 24 hrs by time kill assay. In kind it is functional.
Assay [8] deals with Staphylococcus aureus. Description: Antibacterial activity against Staphylococcus aureus ATCC 29213 infected in Swiss mouse skin infection model assessed as reduction in skin bacterial load at 2 % dose administered twice daily for 4 days. In kind it is functional. The note with it: time 4 day.
Assay [9] relates to Staphylococcus aureus. Description: Antibiofilm activity against Staphylococcus aureus ATCC 29213 assessed as reduction in preformed bacterial biofilm mass at 1 time MIC incubated for 24 hrs by crystal violet staining based microtiter plate reader assay. In kind it is functional. Also noted: scale not given: the % may be the effect or the level left.
Assay [10] concerns Staphylococcus aureus. Description: Post antibiotic effect against Staphylococcus aureus ATCC 29213 assessed as time required for 1 log10 increase in CFU at 1 time MIC incubated for 1 hr followed by replacement with drug free medium and measured every 1 hr (reference value: 2 hrs). In kind it is functional.
For assay [11], the system named is Staphylococcus aureus. As to the kind of experiment: Post antibiotic effect against Staphylococcus aureus ATCC 29213 assessed as time required for 1 log10 increase in CFU at 10 times MIC incubated for 1 hr followed by replacement with drug free medium and measured every 1 hr (reference value: 2 hrs). In kind it is functional.
For assay [12], the system named is Staphylococcus aureus. As to the kind of experiment: Post antibiotic effect against Staphylococcus aureus ATCC 29213 at 1 time MIC incubated for 1 hr followed by replacement with drug free medium and measured every 1 hr (reference value: 0 hr). In kind it is functional.
The subject of assay [13] is Staphylococcus aureus. Description: Post antibiotic effect against Staphylococcus aureus ATCC 29213 at 10 times MIC incubated for 1 hr followed by replacement with drug free medium and measured every 1 hr (reference value: 0 hr). The class given is functional.
The next assay concerns Enterococcus. Description: Antibacterial activity against Enterococcus NR 31903 assessed as reduction in bacterial growth incubated for 16 to 18 hrs by broth microdilution method. In kind it is functional. The conditions noted are these: time 16-18 hrs.
A further assay deals with Klebsiella pneumoniae. Description: Antibacterial activity against Klebsiella pneumoniae BAA 1705 assessed as reduction in bacterial growth incubated for 16 to 18 hrs by broth microdilution method. In kind it is functional. The conditions noted are these: time 16-18 hrs.
In a further assay the test system is Pseudomonas aeruginosa. As to the kind of experiment: Antibacterial activity against Pseudomonas aeruginosa ATCC 27853 assessed as reduction in bacterial growth incubated for 16 to 18 hrs by broth microdilution method. The class given is functional. The conditions noted are these: time 16-18 hrs.
The test system of assay [14] is Staphylococcus aureus. As to the kind of experiment: Antibacterial activity against Staphylococcus aureus ATCC 29213 infected in mouse J774A.1 cells assessed as reduction in intracellular bacterial cells at 5 times MIC incubated for 24 hrs followed by re-plating on TSA plate and measured after 18 to 24 hrs. The class given is functional.
Assay [15] in a line: Induction of resistance in Staphylococcus aureus ATCC 29213 assessed as increase in MIC treated over 35 serial passages by resistant development assay. The class given is functional.
The test system of assay [16] is Staphylococcus aureus. As to the kind of experiment: Bactericidal activity against Staphylococcus aureus ATCC 29213 assessed as increase in extracellular ATP level at 2.5 times MIC after 1 hr by ATP bioluminescence assay. The class given is functional, organism-based.
In assay [17] the test system is Staphylococcus aureus. Description: Bactericidal activity against Staphylococcus aureus ATCC 29213 assessed as decrease in intracellular ATP level at 2.5 times MIC after 1 hr by ATP bioluminescence assay. In kind it is functional, organism-based.

With `CO[C@H]1/C=C/O[C@@]2(C)Oc3c(C)c(O)c4c(O)c(c(/C=N/N5CCN(C)CC5)c(O)c4c3C2=O)NC(=O)/C(C)=C\C=C\[C@H](C)[C@H](O)[C@@H](C)[C@@H](O)[C@@H](C)[C@H](OC(C)=O)[C@@H]1C` [RIFAMPIN], the MIC in the assay on Acinetobacter baumannii [1] was 2 µg/mL (≈ 2.43 µM); with Escherichia coli [2], 8 µg/mL (≈ 9.72 µM); in the assay on Escherichia coli [3], 0.06 µg/mL; in the assay on Acinetobacter baumannii [4], 0.03 µg/mL; in the assay with Staphylococcus aureus [5], 0.0078 µg/mL; in the assay with Staphylococcus aureus [6], 0.0078 µg/mL (≈ 0.00948 µM).

Consider `CC(=O)NC[C@H]1CN(c2ccc(N3CCOCC3)c(F)c2)C(=O)O1` [LINEZOLID], for which the MIC in the assay on Staphylococcus aureus [5] amounted to 1 µg/mL. The compound further came in with an Activity in the assay on Staphylococcus aureus [7] of 1.6 log10CFU/ml.

In the case of `CN(C)c1ccc(O)c2c1C[C@H]1C[C@H]3[C@H](N(C)C)C(O)=C(C(N)=O)C(=O)[C@@]3(O)C(O)=C1C2=O` [MINOCYCLINE], the MIC amounted to 0.125 µg/mL with Staphylococcus aureus [5] and 0.25 µg/mL (≈ 0.546 µM) against Staphylococcus aureus [6].

With `CC(=O)O[C@H]1C[C@@]2(C)[C@@H](C[C@@H](O)[C@H]3[C@@]4(C)CC[C@@H](O)[C@@H](C)[C@@H]4CC[C@@]32C)/C1=C(\CCC=C(C)C)C(=O)O` [FUSIDIC ACID], the Activity with Staphylococcus aureus [8] was 1.8 log10CFU/g.

For `CC[C@H](C)CCCCC(=O)N[C@@H](CCN)C(=O)N[C@H](C(=O)N[C@@H](CCN)C(=O)N[C@H]1CCNC(=O)[C@H]([C@@H](C)O)NC(=O)[C@H](CCN)NC(=O)[C@H](CCN)NC(=O)[C@H](CC(C)C)NC(=O)[C@@H](Cc2ccccc2)NC(=O)[C@H](CCN)NC1=O)[C@@H](C)O` (HELM PEPTIDE1{[CC[C@H](C)CCCCC(=O)[*:2]].[Dab].T.[Dab].[Dab].[Dab].[dF].L.[Dab].[Dab].T}$PEPTIDE1,PEPTIDE1,5:R3-11:R2$$$V2.0), the MIC in the assay on Acinetobacter baumannii [1] and in the assay on Escherichia coli [2] was > 64 µg/mL throughout.

For the compound `CCCCCCCCCC(=O)N[C@@H](Cc1c[nH]c2ccccc12)C(=O)N[C@H](CC(N)=O)C(=O)N[C@@H](CC(=O)O)C(=O)N[C@@H]1C(=O)NCC(=O)N[C@@H](CCCN)C(=O)N[C@@H](CC(=O)O)C(=O)N[C@H](C)C(=O)N[C@@H](CC(=O)O)C(=O)NCC(=O)N[C@H](CO)C(=O)N[C@@H]([C@H](C)CC(=O)O)C(=O)N[C@@H](CC(=O)c2ccccc2N)C(=O)O[C@@H]1C`, the MIC with Staphylococcus aureus [5] amounted to 0.5 µg/mL; in the assay with Staphylococcus aureus [6], 1 µg/mL (≈ 0.617 µM).

For the compound `CN[C@H](CC(C)C)C(=O)N[C@H]1C(=O)N[C@@H](CC(N)=O)C(=O)N[C@H]2C(=O)N[C@H]3C(=O)N[C@H](C(=O)N[C@H](C(=O)O)c4cc(O)cc(O)c4-c4cc3ccc4O)[C@H](O)c3ccc(c(Cl)c3)Oc3cc2cc(c3O[C@@H]2O[C@H](CO)[C@@H](O)[C@H](O)[C@H]2O[C@H]2C[C@](C)(N)[C@H](O)[C@H](C)O2)Oc2ccc(cc2Cl)[C@H]1O` [VANCOMYCIN], the MIC came to 256 µg/mL (≈ 177 µM) in the assay on Acinetobacter baumannii [1], 512 µg/mL (≈ 353 µM) in the assay on Escherichia coli [2], 128 µg/mL with Escherichia coli [3] and 64 µg/mL in the assay on Acinetobacter baumannii [4]. In the assay with Staphylococcus aureus [9], the Activity was found to be 4%. The Time was determined as 3 h with Staphylococcus aureus [10] and 3.5 h with Staphylococcus aureus [11]. Further, the PAE in the assay with Staphylococcus aureus [12] stood at 1 h; in the assay on Staphylococcus aureus [13], 1.5 h.

Turning to GENTAMICIN, in the assay with Staphylococcus aureus [5], the MIC was determined as 0.06 µg/mL.

Take `C[C@@H](O)[C@H]1C(=O)N2C(C(=O)O)=C(S[C@@H]3CN[C@H](C(=O)N(C)C)C3)[C@H](C)[C@H]12` [MEROPENEM]: the MIC turned out to be 2 µg/mL with Staphylococcus aureus [5] and 1 µg/mL (≈ 2.61 µM) in the assay on Staphylococcus aureus [6].

On to `C[C@H]1COc2c(N3CCN(C)CC3)c(F)cc3c(=O)c(C(=O)O)cn1c23.C[C@H]1COc2c(N3CCN(C)CC3)c(F)cc3c(=O)c(C(=O)O)cn1c23.O` [LEVOFLOXACIN], for which the MIC was > 64 µg/mL with Enterococcus; 64 µg/mL in the assay with Klebsiella pneumoniae; 0.5 µg/mL in the assay with Pseudomonas aeruginosa; 0.25 µg/mL with Staphylococcus aureus [5]; 32 µg/mL in assay [15]; 0.125 µg/mL against Staphylococcus aureus [6]. Also, the Activity in the assay with Staphylococcus aureus [9] worked out at 15%; in the assay on Staphylococcus aureus [14], 0.45 log10CFU/ml. Moreover, the values for the Time in the assay on Staphylococcus aureus [10] and in the assay with Staphylococcus aureus [11] were 2.5 h and 3.5 h, respectively. In addition, the PAE in the assay on Staphylococcus aureus [12] was found to be 0.5 h; with Staphylococcus aureus [13] it was 1.5 h.

Turning to `CC[C@H](C)[C@H](NC(=O)CN)C(=O)NCC(=O)N[C@@H](C)C(=O)N[C@H](C(=O)N[C@@H](CC(C)C)C(=O)N[C@@H](CCCCN)C(=O)N[C@H](C(=O)N[C@@H](CC(C)C)C(=O)N[C@H](C(=O)N[C@H](C(=O)NCC(=O)N[C@@H](CC(C)C)C(=O)N1CCC[C@H]1C(=O)N[C@@H](C)C(=O)N[C@@H](CC(C)C)C(=O)N[C@H](C(=O)N[C@@H](CO)C(=O)N[C@@H](Cc1c[nH]c2ccccc12)C(=O)N[C@H](C(=O)N[C@@H](CCCCN)C(=O)N[C@@H](CCCNC(=N)N)C(=O)N[C@@H](CCCCN)C(=O)N[C@@H](CCCNC(=N)N)C(=O)N[C@@H](CCC(N)=O)C(=O)N[C@@H](CCC(N)=O)C(N)=O)[C@@H](C)CC)[C@@H](C)CC)[C@@H](C)O)[C@@H](C)O)C(C)C)C(C)C`, the outcome in the assay with Staphylococcus aureus [16] and in the assay on Staphylococcus aureus [17] was Active.

As for `CC(C)(O/N=C(\C(=O)N[C@@H]1C(=O)N2C(C(=O)[O-])=C(C[n+]3ccccc3)CS[C@H]12)c1csc(N)n1)C(=O)O` [CEFTAZIDIME], the MIC in the assay on Staphylococcus aureus [5] was 16 µg/mL; against Staphylococcus aureus [6], 16 µg/mL (≈ 29.3 µM).
